Experimental data from patent publication US10028956B2, “Methods of treating various cancers using an AXL/cMET inhibitor in combination with other agents” (Ignyta, Inc., priority 2013, dated 2018).
Marks after values point to notes of the source that are not given here.

Columns and labels:
[1] = test system: CTG-0192 erlotinib-sensitive NSCLC TumorGraft; assay: NSCLC TumorGraft model CTG-0192; assay type: in vivo, mice; conditions: for % Tumor Growth Inhibition: CTG-0192, 32 days
Protocol: (§1) Methods (for the experiments shown in FIGS. 10 and 11) • Female immunocompromised nu/nu mice (Harlan) between 6-9 weeks of age were housed on irradiated papertwist-enriched ⅛″ corncob bedding (Sheperd) in individual HEPA ventilated cages (Innocage® IVC, Innovive USA) on a 12-hour light-dark cycle at 68-74° F. (20-23° C.) and 30-70% humidity. Animals were fed water ad libitum (reverse osmosis, 2 ppm Cl2) and an irradiated Test rodent diet (Teklad 2919) consisting of 19% protein, 9% fat, and 4% fiber. • Tumor Models: Champions TumorGraft models of NSCLC are owned by Champions Oncology. In this study, animals were implanted unilaterally on the right flank with tumor fragments harvested from host animals. […] Erlotinib (manufacturer: OSI Pharmaceuticals; National Drug Code: 50242-062-01; Lot #: US0002) was formulated using 100% PEG-400 as the vehicle according to manufacturer's specifications.
(§2) Efficacy measurements: Beginning Day 0, tumor dimensions were measured twice weekly by digital caliper (Fowler Ultra-Cal IV) and data including individual and mean estimated tumor volumes (Mean TV±SEM) were recorded for each group; tumor volume was calculated using the formula TV=width^2×length×0.52. At study completion, percent tumor growth inhibition (% TGI) values were calculated and reported for each treatment group (T) versus control (C) using initial (i) and final (f) tumor measurements by the formula: % TGI=1−Tf−Ti/Cf−C; single agent or combination therapies resulting in a TGI>50 at study completion are considered active in the tested model at the evaluated treatment regimen according to NCI guidelines. Individual mice reporting a tumor volume ≤50% of the Day 0 measurement for two consecutive measurements over a seven day period were considered partial responders (PR). If the PR persisted until study completion, percent tumor regression (% TR) was determined using the formula: % TR=1−Tf/Ti×100; a mean value was calculated if multiple PR mice occurred in one group. Individual mice lacking palpable tumors (<4×4 mm^2 for two consecutive measurements over a seven day period) were classified as complete responders (CR); a CR that persisted until study completion was considered a tumor-free survivor (TFS). TFS animals are excluded from efficacy calculations. Statistical differences in tumor volume were determined using a two-tailed One-Way Analysis of Variance (ANOVA) followed by the Dunett's multiple comparisons test comparing treated groups with control and combinations with standard agent alone when possible. All data collected in this study was managed electronically and stored on a redundant server system.

c-Met [2] = target: T1, c-Met (Homo sapiens, UniProt P08581); assay: c-Met enzyme inhibition; assay type: biochemical
[3] = test system: CTG-0159 primary NSCLC human TumorGraft; assay: NSCLC TumorGraft model CTG-0159; assay type: in vivo, mice; conditions: CTG-0159, 14 days
Protocol: as §1
as §2, with “Individual mice reporting a tumor volume ≤50% of the Day 0 measurement for two consecutive measurements over a seven day period were considered partial responders (PR).” left out, “Individual mice lacking palpable tumors (<4×4 mm^2 for two consecutive measurements over a seven day period) were classified as complete responders (CR); a CR that persisted until study completion was considered a tumor-free survivor (TFS). TFS animals are excluded from efficacy calculations.” left out, “All data collected in this study was managed electronically and stored on a redundant server system.” left out

[4] = test system: MDA-MB-231-Leu orthotopic breast tumor xenografts; assay: Metastases of MDA-MB-231-Leu orthotopic breast tumor xenografts; assay type: in vivo, mice; conditions: oral administration, 10 and 30 mg/kg qd
Protocol: The human breast cancer cell line MDA-MB-231-Leu-D3H2LN-luciferase expressing cell line was purchased from Caliper Life Sciences. This tumor cell line was generated by stable transfection of the firefly luciferase gene expressed from the SV40 promoter and further selected for its metastatic potential upon isolation from a spontaneous lymph node metastasis of MDA-MB-231-Luc cells in immune-compromised mice. The cells were grown in DMEM medium supplemented with 10% fetal bovine serum (FBS, Cat^# SH3007003, Hyclone, Logan, Utah). D-Luciferin firefly/potassium salt (Cat. # L-8220) was purchased from Biosynth International, Inc., Itasca, Ill.). Female nu/nu mice (6 to 8 weeks old) were purchased from Harlan Laboratories. […] Mouse body weights were measured on day 0 and then every 7 days, and bioluminescence image analysis performed at the end of the study using the Caliper Life Sciences (Xenogen) Spectrum imager as detailed in FIG. 6. Images of the primary tumor and potential metastatic tumors in lymph nodes were taken weekly, starting on day 7 post cell implantation. Prior to image acquisition, each mouse were give a 0.2 ml intra-peritoneal injection of D-Luciferin firefly/potassium salt and images were acquired 6-10 minutes post substrate administration. […] Counts were converted to average radiance or mean photon flux; expressed as photons per second (p/s). […]

[5] = test system: CTG-0165 erlotinib-insensitive primary NSCLC human TumorGraft; assay: NSCLC TumorGraft model CTG-0165; assay type: in vivo, mice; conditions: for % Tumor Growth Inhibition: CTG-0165, 37 days
Protocol: as §1, §2

[6] = test system: CTG-0157 primary NSCLC human TumorGraft; assay: NSCLC TumorGraft model CTG-0157; assay type: in vivo, mice; conditions: CTG-0157, 14 days
Protocol: as §1
as §2, with “Individual mice reporting a tumor volume ≤50% of the Day 0 measurement for two consecutive measurements over a seven day period were considered partial responders (PR).” left out, “Individual mice lacking palpable tumors (<4×4 mm^2 for two consecutive measurements over a seven day period) were classified as complete responders (CR); a CR that persisted until study completion was considered a tumor-free survivor (TFS). TFS animals are excluded from efficacy calculations.” left out, “All data collected in this study was managed electronically and stored on a redundant server system.” left out

PK in rat = conditions: in vivo
[7] = test system: EBC-1 Human NSCLC xenografts; assay: Discontinuous and alternate dosing schedules in EBC-1 xenografts; assay type: in vivo, mice; conditions: 10 mg/kg oral
Protocol: After a period of 7 days of continuous dosing, animals were then switched to either a 7 day on/7 day off 10 mg/kg qd dosing regimen, or intermittent twice weekly (q2d) or thrice weekly (q3d) oral dosing at a 10 mg/kg qd dose for a total of 21 days.

c-Met [8] = target: T1, c-Met; assay: Cellular c-Met inhibition in GTL-16 cells; assay type: cell-based; design: endogenous in cells; host or cells: GTL-16 human gastric carcinoma cells
[9] = intravenous, 1 mg/kg i.v. and 3 mg/kg p.o.

T1 sequence (P08581 25-1390): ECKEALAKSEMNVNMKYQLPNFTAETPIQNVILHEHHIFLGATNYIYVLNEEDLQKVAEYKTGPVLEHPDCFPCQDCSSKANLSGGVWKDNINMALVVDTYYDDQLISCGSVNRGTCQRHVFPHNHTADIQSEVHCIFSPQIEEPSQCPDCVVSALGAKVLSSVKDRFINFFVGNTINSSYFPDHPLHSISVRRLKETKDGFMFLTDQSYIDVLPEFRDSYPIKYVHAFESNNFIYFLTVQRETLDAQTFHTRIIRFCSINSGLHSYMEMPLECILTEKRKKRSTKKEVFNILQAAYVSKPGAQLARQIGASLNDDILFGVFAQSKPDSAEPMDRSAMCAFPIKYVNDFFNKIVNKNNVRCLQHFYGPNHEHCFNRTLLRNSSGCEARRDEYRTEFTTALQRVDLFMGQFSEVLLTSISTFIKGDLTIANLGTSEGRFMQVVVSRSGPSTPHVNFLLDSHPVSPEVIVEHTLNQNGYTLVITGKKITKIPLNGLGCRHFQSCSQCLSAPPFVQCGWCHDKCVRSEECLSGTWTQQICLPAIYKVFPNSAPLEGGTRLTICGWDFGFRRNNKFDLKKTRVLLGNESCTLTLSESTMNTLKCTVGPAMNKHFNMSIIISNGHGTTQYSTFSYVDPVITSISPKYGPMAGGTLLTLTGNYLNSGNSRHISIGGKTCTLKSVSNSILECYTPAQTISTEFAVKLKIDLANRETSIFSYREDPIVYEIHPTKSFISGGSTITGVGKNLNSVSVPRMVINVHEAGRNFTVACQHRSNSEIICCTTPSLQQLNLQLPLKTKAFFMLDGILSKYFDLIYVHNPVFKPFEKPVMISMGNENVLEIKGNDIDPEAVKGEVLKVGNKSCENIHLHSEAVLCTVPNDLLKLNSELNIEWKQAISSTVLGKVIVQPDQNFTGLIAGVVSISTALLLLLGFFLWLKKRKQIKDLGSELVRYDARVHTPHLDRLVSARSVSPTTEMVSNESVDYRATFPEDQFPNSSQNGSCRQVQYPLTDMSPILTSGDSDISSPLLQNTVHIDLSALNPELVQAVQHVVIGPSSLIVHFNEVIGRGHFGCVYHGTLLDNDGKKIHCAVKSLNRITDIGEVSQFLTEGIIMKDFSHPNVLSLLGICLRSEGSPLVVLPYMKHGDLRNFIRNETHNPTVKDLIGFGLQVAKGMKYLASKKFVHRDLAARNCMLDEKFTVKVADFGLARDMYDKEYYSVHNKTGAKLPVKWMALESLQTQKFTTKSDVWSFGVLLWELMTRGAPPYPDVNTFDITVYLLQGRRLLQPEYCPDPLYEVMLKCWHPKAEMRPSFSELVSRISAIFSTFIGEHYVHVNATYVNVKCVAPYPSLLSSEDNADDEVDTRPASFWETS

COc1cc2nccc(Oc3ccc(NC(=O)c4cn(C(C)C)c(=O)n(-c5ccc(F)cc5)c4=O)cc3F)c2cc1OC [CEP-40783, 3-(4-Fluorophenyl)-1-isopropyl-2,4-dioxo-1,2,3,4-tetrahydropyrimidine-5-carboxylic acid [4-(6,7-dimethoxyquinolin-4-yloxy)-3-fluorophenyl]-amide]
acquired resistance during the treatment phase ([1]; CTG-0192): no acquired resistance
% Tumor Growth Inhibition ([1]; 10 mg/kg po/qd): 85%*
% Tumor Growth Inhibition ([1]; 30 mg/kg po/qd): 71%*
tumor response, single agent ([1]; CTG-0192, also after dosing discontinued (day 34)): significant TGI/tumor stasis was maintained even after dosing was discontinued
IC50 (c-Met [2]): 12 nM
% Tumor Growth Inhibition ([3]; 10 mg/kg po/qd): 46%*
% Tumor Growth Inhibition ([3]; 30 mg/kg po/qd): 66%*†
spontaneous lymph node and pulmonary metastatic tumor burden [4]: efficacious in reducing spontaneous lymph node and pulmonary metastatic tumor burden
% Tumor Growth Inhibition ([5]; 10 mg/kg po/qd): 116%*†
% Tumor Growth Inhibition ([5]; 30 mg/kg po/qd): 118%*†
efficacy in erlotinib-insensitive TumorGraft ([5]; CTG-0165, oral 10 mg/kg and 30 mg/kg): tumor regressions
% Tumor Growth Inhibition ([6]; 10 mg/kg po/qd): 3%
% Tumor Growth Inhibition ([6]; 30 mg/kg po/qd): 85%*†
Cmax (PK in rat; 1 mg/kg i.v. and 3 mg/kg p.o.): 593 ng/mL
Vd (PK in rat; [9]): 2.6 L/kg
clearance (PK in rat; [9]): 1.4 mL/min/kg
half-life (PK in rat; iv, 1 mg/kg i.v., read-out: t1/2 i.v. (converted)): 21.5 h
bioavailability (PK in rat; oral, 1 mg/kg i.v. and 3 mg/kg p.o.): 57%
AUC(0-t) (PK in rat; po, 3 mg/kg p.o.): 16300 ng·h/mL
partial responses ([7]; every 2 days (q2d)): 40%
partial responses ([7]; every 3 days (q3d)): 70%
complete tumor regressions, % of animals ([7]; q2d dosing group): 20%
partial responses ([7]; qd, 7 days on/7 days off (qd×7)): 40%
complete tumor regressions, % of animals ([7]; qd×7 dosing group): 10%
IC50 (c-Met [8]): 6 nM
